This note sets out measurements from patent US20160287602A1, “METHODS FOR PROMOTING MOTOR NEURON SURVIVAL” (PRESIDENT AND FELLOWS OF HARVARD COLLEGE, priority 2013, published 2016).

“Also recorded” adds a separate entry of the source.

Assay [1] deals with SOD1^G93A/Hb9::GFP MNs. The experiment in a line: MN morphology analysis of surviving MNs. In kind it is cell-based, mouse. The following applies: absence of trophic factors, extended time point. The text has this:
(§1) To examine whether MNs kept alive by AKIs maintain morphological integrity we carried out a series of analyses on surviving MNs in the absence of trophic factors. […] We also used an automated imager to analyze the number of synapses per MN by counting co-localized regions positive for the presynaptic marker synapsin and the postsynaptic marker PSD-95.

In assay [2] the test system is Hb9::GFP MNs. The experiment in a line: MN morphology analysis of surviving MNs. Type of assay: cell-based, mouse. The following applies: absence of trophic factors, extended time point.
Description: as §1

The subject of the next assay is MNs. The experiment in a line: Lentivirus knockdown of Prkarlb, MN survival. Type of assay: cell-based, mouse. An excerpt:
Next we sought to investigate the mechanism by which AKIs promote MN survival. To evaluate this comprehensively we performed microarray analysis to compare gene expression between MNs cultured with: 1) Trophic factors (+TF), 2) No trophic factors (−TF), 3) VX-680 in the absence of TFs, and 4) ZM447439 in the absence of TFs. […] Gene expression was compared between +TF and −TF, VX-680 and −TF, and ZM447439 and −TF. With a cut off of more than 3 fold difference, there were 85 genes overlapping in all three comparison in Hb9::GFP MNs and 57 in SOD1^G93A/Hb9::GFP MNs. We found 39 overlapping genes when we compared both types of MNs (FIG. 5B). […] We analyzed the shortlist of 39 genes by using DAVID functional annotation bioinformatics microarray analysis software to find the potential pathways involved in MN survival. […] PKA is known to phosphorylate BAD protein, leading to increased cell survival (Jose M. LIZCANO et al., 2000; Julian Downward et al., Nature cell biology 1999; Komaki S et al., Neurosci Lett 2012). […] We further investigated this pathway by lentivirus knockdown of Prkarlb.

The test system of the next assay is synaptophysin. The experiment in a line: Synaptophysin immunoblot, iPSC-derived MNs. The following applies: both the presence and absence of trophic factors. In kind it is cell-based, human. An excerpt:
(§2) We produced MNs from human iPSCs lines including a healthy control, two ALS patients expressing confirmed mutations in SOD1 (Boulting et al., 2011), two with mutations in TDP-43 and one in C90RF72. We treated these cultures with AraC to minimize the number of proliferating progenitors. […] We also examined the effect of SOD 1^G93A astrocytes co-culture on iPSC derived MNs. We found no toxic effect on survival in any of the patient iPSC derived MNs, but we did observe decreased MN survival in the control iPSC derived MNs. […] We also looked at the effect of AKIs on morphology and synapse formation. […] In addition, by immunoblot we observed that ZM447439 enhanced synaptic protein, synaptophysin, expression in both the presence and absence of trophic factors.
On the technique in general: In western blotting, separated proteins are transferred to a membrane and probed.

Assay [3] deals with phosphorylated BAD (pBAD). The experiment in a line: Phosphorylated BAD immunostaining in surviving MNs. In kind it is cell-based, mouse. The following applies: absence of TFs.
Assay [4] relates to HuES-3/Hb9::GFP human ESC derived MNs. Description: Human ESC derived MN survival after trophic factor withdrawal. The following applies: trophic factors withdrawn. Type of assay: cell-based. The text has this: We generated MNs from a human ESC line expressing an HB9::GFP transgene [HuES-3/Hb9::GFP (Di Giorgio et al., 2008)]. Human ESC derived MN cultures were pre-treated with AraC to eliminate progenitor cells. We induced MN death by again withdrawing trophic factors. […] We also investigated the toxic effect of SOD1^G93A astrocytes on human ESC derived MN survival. We found significant death of human MNs cultured on mutant astrocytes.

Assay [5] relates to SOD1^G93A (SOD1^G93A/Hb9::GFP) mouse ESC derived MNs. Description: MN survival after trophic factor withdrawal, mixed culture. Type of assay: cell-based. The text has this: In the present study, we have screened highly specific small molecule kinase inhibitors to identify those which could promote MN survival. For the screen, we generated MNs from wild-type (Hb9::GFP) and SOD1^G93A (SOD1^G93A/Hb9::GFP) mouse ESCs using published protocols (Di Giorgio et al., 2007). We withdrew trophic factors as a standard method to induce MN death. Cell plating density as well as timing for initiation and duration of trophic factor withdrawal were used exactly as published to achieve ˜80% MN death in 3 days (FIG. 1A) (Yang et al., 2013). […] We continued to work with this compound class as it reproducibly promoted survival of both MNs types and the effect was robust. We further reasoned that since this compound class promoted survival of both MN types, the probability of its working in other contexts such as on human MNs and in the ALS mouse model was maximum.
High expression of Aurora kinases is associated with various types of cancer (Sen et al., 1997; Reichardt et al., 2003; Tchatchou et al., 2007) and there are many AKIs including VX-680 and ZM447439 that are in clinical trials for anti-cancer drug development.
Trophic factors were removed and ZM447439 was added to the cultures as previously and MN survival was analyzed on day 7, 14 & 21.

For assay [6], the system named is synaptophysin in SOD1^G93A/Hb9::GFP MN cultures. The experiment in a line: Synaptophysin immunoblotting. In kind it is cell-based, mouse.
The subject of assay [7] is human iPSC derived MNs (healthy control, SOD1, TDP-43, C90RF72). Description: Human iPSC derived MN survival. In kind it is cell-based.
Description: as §2

Another assay has as its system FACS purified MNs. Description: Area of MN cell bodies in astrocyte co-culture. Type of assay: cell-based, mouse. How it is done:
We sought to examine whether AKIs decrease the toxic effect of SOD1^G93A mutant astrocytes. We first cultured primary astrocytes from wild type (WT) and SOD1^G93A mice and plated FACS purified MNs on top. We observed significant cell death when MNs were cultured on mutated astrocytes compared to WT astrocytes. ZM447439 improved both Hb9::GFP and SOD1^G93A/Hb9::GFP MN survival.

The test system of assay [8] is SOD1^G93A/Hb9::GFP MNs. Description: Number of synapses per MN (synapsin/PSD-95 co-localization, automated imager). Type of assay: cell-based, mouse.
Description: as §1

Assay [9] has as its system Hb9::GFP MNs. Described as above. Type of assay: cell-based, mouse.
Description: as §1

Assay [10] has as its system wild-type (Hb9::GFP) mouse ESC derived MNs. The experiment in a line: MN survival after trophic factor withdrawal, mixed culture. In kind it is cell-based. The following applies: in presence of neurotrophic factors; day 7, 14 & 21.
The subject of the next assay is iPSCs derived MNs. Description: iPSC derived MNs co-cultured with wild type or SOD1^G93A astrocytes. In kind it is cell-based, human. The following applies: iPSCs derived MNs cultured on wild type or SOD1^G93A astrocytes.
Description: as §2

Turning to `COc1cc2c(Nc3ccc(NC(=O)c4ccccc4)cc3)ncnc2cc1OCCCN1CCOCC1` [ZM447439, N-[4-[[6-Methoxy-7-[3-(4-morpholinyl)propoxy]-4-quinazolinyl]amino]phenyl]benzamide], the “MN morphology (total neurite length, maximum neurite length, number of extremities and number of nodes per MN)” value with SOD1^G93A/Hb9::GFP MNs [1] and in the assay with Hb9::GFP MNs [2] was “preserved all of these features” in each case. In addition, in the assay with MNs, the “MN survival on knocking down Prkarlb in the presence of the compound” value is reported as “effectively decreased MN survival”. The “synaptic protein synaptophysin expression” value in the assay with synaptophysin is “enhanced”. Moreover, the “levels of phosphorylated BAD (pBAD)” value in [3] is “increased levels”. For the same compound, in [4] (FIG. 7A), the “human MN survival, comparison of VX-680 and ZM447439” value was “more effective and potent in preventing MN death”. The “human MN survival” value in assay [4] (AraC pre-treated cultures) is on record as “rescued human MN death”. The “basal MN death” value in assay [5] (in presence of neurotrophic factors, day 7, 14 & 21) was “prevented”; in assay [10], “prevented”. Besides, in [5] (trophic factor withdrawal, 3 days, SOD1^G93A/Hb9::GFP MNs), the “survival of MNs (number of surviving MNs)” value was “consistently increased the survival of MNs; also recorded: most potent and robust at increasing survival”. In assay [5] (trophic factors removed, day 7, 14 & 21, SOD1^G93A/Hb9::GFP MNs), the “long term MN survival” value is “increased survival”. Besides, the “expression of synaptic protein synaptophysin” value in assay [6] is given as “increased expression”. Moreover, the MN survival entry in assay [7] (all human iPSC derived MN cultures, AraC treated) is “substantially increase MN survival”. For the same compound, the “MN survival, comparison of VX-680 and ZM447439” value in assay [7] (human iPSC derived MN cultures) is “more effective and potent in rescuing human MN death”. For the same compound, in the assay with FACS purified MNs, the “area of MN cell bodies” value is recorded as “increased”. Also, the “number of synapses per MN” value was “preserved the number of synapses” with SOD1^G93A/Hb9::GFP MNs [8] (absence of trophic factors, SOD1^G93A/Hb9::GFP MNs); “increased the number of synapses per MN” in the assay on SOD1^G93A/Hb9::GFP MNs [8] (neurotrophin containing medium); “preserved the number of synapses” with Hb9::GFP MNs [9] (absence of trophic factors, Hb9::GFP MNs); “increased the number of synapses per MN” with Hb9::GFP MNs [9] (neurotrophin containing medium). Besides, the “MN survival in astrocyte co-culture” value in the assay on iPSCs derived MNs is “improved survival”.
